Tests used:
[1] = binding affinity of one ligand with free zinc ion; recorded at pH 7.4
[2] = upper aqueous solution pH attained without precipitating zinc hydroxide; type: physicochemical; conditions: 1:3 molar ratio of zinc to ligand

zinc-ligand (log Ks1) [1]	pH at which zinc hydroxide precipitates [2]	pH at which zinc hydroxide precipitates ([2]; listed as acetate)	SMILES
5.16	>10	–	NCC(=O)O [glycine]
–	5.82	below 6	CC(=O)O [acetic acid]

— US20090202453A1, “Oral Composition” (Hindustan Lever Limited, priority 2004, published 2009)
